Measurements from the supplement of paper PMC10627819.

Experiments:
S. aureus DSM 20231 = experiment: Bliss interaction score (quartile over a dose matrix) (fitness difference); higher = more antagonism (negative = synergy)
Procedure, shortened: (§1)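 The Bliss score was calculated by subtracting the expected fitness, the product of single-drug values, from the observed fitness. OD595 at entry into stationary phase, over the plate's robust no-drug mean and capped at 1, served as the fitness readout. Single-drug values were inferred from combination data, and scores are summarised by quartiles across technical, biological and donor/recipient replicates.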

B. subtilis 168 [1] = experiment: as above
Procedure, shortened: as §1

S. pneumoniae D39V [2] = experiment: as above
Procedure, shortened: as §1

S. aureus Newman [3] = experiment: as above
Procedure, shortened: as §1

B. subtilis 168 [4] = experiment: fitness (endpoint OD595 vs no drug) (fraction); higher = more growth; settings: main component drawn
Procedure, shortened: (§2)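 Fitness was measured as bacterial growth in 384-well plates inoculated at OD595 0.01 (30 µl, or 55 µl for S. pneumoniae). Media were TSB, LB Lennox or CY, at 37 °C. OD595 was read every 30 min for 14 h and background-subtracted against the first reading. Fitness is OD595 at the transition into stationary phase divided by the robust mean of no-drug control wells, capped at 1.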

S. pneumoniae D39V [5] = experiment: as above
Procedure, shortened: as §2

S. aureus Newman [6] = experiment: as above; settings: one replicate
Procedure, shortened: as §2
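For Bliss interaction score (quartile over a dose matrix) in this document: first quartile when negative (synergy) and third quartile when positive (antagonism).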

## COc1c(N2C[C@@H]3CCCN[C@@H]3C2)c(F)cc2c(=O)c(C(=O)O)cn(C3CC3)c12 [Moxifloxacin] + CCC(C)C1C(=O)NC(=C)C(=O)NC(C(=O)NC(CSCC(C(=O)N1)NC(=O)/C(=C/C)/NC(=O)C(C(C)CC)N)C(=O)NC2C(SCC(NC(=O)CNC(=O)C3CCCN3C2=O)C(=O)NC(CCCCN)C(=O)NC4C(SCC(NC(=O)CNC(=O)C(NC(=O)C(NC(=O)C(NC(=O)CNC4=O)C)CC(C)C)CCSC)C(=O)NC(CC(=O)N)C(=O)NC(CCSC)C(=O)NC(CCCCN)C(=O)NC5C(SCC6C(=O)NC(C(=O)NC(CSC(C(C(=O)N6)NC(=O)C(NC5=O)C)C)C(=O)NC(CO)C(=O)NC(C(C)CC)C(=O)NC(CC7=CN=CN7)C(=O)NC(C(C)C)C(=O)NC(=C)C(=O)NC(CCCCN)C(=O)O)CC8=CN=CN8)C)C)C)CC(C)C [Nisin]
S. aureus DSM 20231; main component drawn
  Bliss interaction score: 0.0667
B. subtilis 168 [1]; main component drawn
  Bliss interaction score: 0.0196
S. pneumoniae D39V [2]; main component drawn
  Bliss interaction score: 0.116
S. aureus Newman [3]; main component drawn
  Bliss interaction score: -0.0568
B. subtilis 168 [4]; first compound 0.0312 µg/mL, partner 0.5 µg/mL
  fitness: 0.0551
B. subtilis 168 [4]; first compound 0.0312 µg/mL, partner 1 µg/mL
  fitness: 0.0324
B. subtilis 168 [4]; first compound 0.0312 µg/mL, partner 1.25 µg/mL, one replicate
  fitness: 0.0287
B. subtilis 168 [4]; first compound 0.0312 µg/mL, partner 1.6 µg/mL, one replicate
  fitness: 0.0362
B. subtilis 168 [4]; first compound 0.0312 µg/mL, partner 2 µg/mL
  fitness: 0.0208
B. subtilis 168 [4]; first compound 0.0312 µg/mL, partner 2.5 µg/mL, one replicate
  fitness: 0.037
B. subtilis 168 [4]; first compound 0.0312 µg/mL, partner 3.2 µg/mL, one replicate
  fitness: 0.0222
B. subtilis 168 [4]; first compound 0.0312 µg/mL, partner 5 µg/mL, one replicate
  fitness: 0.0373
B. subtilis 168 [4]; first compound 0.0312 µg/mL, partner 6.4 µg/mL, one replicate
  fitness: 0.0438
B. subtilis 168 [4]; first compound 0.0625 µg/mL, partner 0.5 µg/mL
  fitness: 0.0449
B. subtilis 168 [4]; first compound 0.0625 µg/mL, partner 1 µg/mL
  fitness: 0.0306
B. subtilis 168 [4]; first compound 0.0625 µg/mL, partner 1.25 µg/mL, one replicate
  fitness: 0.0387
B. subtilis 168 [4]; first compound 0.0625 µg/mL, partner 1.6 µg/mL, one replicate
  fitness: 0.0251
B. subtilis 168 [4]; first compound 0.0625 µg/mL, partner 2 µg/mL
  fitness: 0.022
B. subtilis 168 [4]; first compound 0.0625 µg/mL, partner 2.5 µg/mL, one replicate
  fitness: 0.0186
B. subtilis 168 [4]; first compound 0.0625 µg/mL, partner 3.2 µg/mL, one replicate
  fitness: 0.0273
B. subtilis 168 [4]; first compound 0.0625 µg/mL, partner 5 µg/mL, one replicate
  fitness: 0.0148
B. subtilis 168 [4]; first compound 0.0625 µg/mL, partner 6.4 µg/mL, one replicate
  fitness: 0.0244
B. subtilis 168 [4]; first compound 0.125 µg/mL, partner 0.5 µg/mL
  fitness: 0.0446
B. subtilis 168 [4]; first compound 0.125 µg/mL, partner 1 µg/mL
  fitness: 0.0343
B. subtilis 168 [4]; first compound 0.125 µg/mL, partner 1.25 µg/mL, one replicate
  fitness: 0.0145
B. subtilis 168 [4]; first compound 0.125 µg/mL, partner 1.6 µg/mL, one replicate
  fitness: 0.0203
B. subtilis 168 [4]; first compound 0.125 µg/mL, partner 2 µg/mL
  fitness: 0.0231
B. subtilis 168 [4]; first compound 0.125 µg/mL, partner 2.5 µg/mL, one replicate
  fitness: 0.0151
B. subtilis 168 [4]; first compound 0.125 µg/mL, partner 3.2 µg/mL, one replicate
  fitness: 0.0354
B. subtilis 168 [4]; first compound 0.125 µg/mL, partner 5 µg/mL, one replicate
  fitness: 0.0138
B. subtilis 168 [4]; first compound 0.125 µg/mL, partner 6.4 µg/mL, one replicate
  fitness: 0.0155
B. subtilis 168 [4]; first compound 2 µg/mL, partner 0.5 µg/mL, one replicate
  fitness: 0.0297
B. subtilis 168 [4]; first compound 2 µg/mL, partner 1 µg/mL, one replicate
  fitness: 0.0435
B. subtilis 168 [4]; first compound 2 µg/mL, partner 2 µg/mL, one replicate
  fitness: 0.0532
B. subtilis 168 [4]; first compound 2 µg/mL, partner 4 µg/mL, one replicate
  fitness: 0.0258
B. subtilis 168 [4]; first compound 2 µg/mL, partner 8 µg/mL, one replicate
  fitness: 0.0213
B. subtilis 168 [4]; first compound 2 µg/mL, partner 16 µg/mL, one replicate
  fitness: 0.008
B. subtilis 168 [4]; first compound 4 µg/mL, partner 0.5 µg/mL, one replicate
  fitness: 0.0204
B. subtilis 168 [4]; first compound 4 µg/mL, partner 1 µg/mL, one replicate
  fitness: 0.031
B. subtilis 168 [4]; first compound 4 µg/mL, partner 2 µg/mL, one replicate
  fitness: 0.0341
B. subtilis 168 [4]; first compound 4 µg/mL, partner 4 µg/mL, one replicate
  fitness: 0.0254
B. subtilis 168 [4]; first compound 4 µg/mL, partner 8 µg/mL, one replicate
  fitness: 0.0075
B. subtilis 168 [4]; first compound 4 µg/mL, partner 16 µg/mL, one replicate
  fitness: 0.0061
B. subtilis 168 [4]; first compound 8 µg/mL, partner 0.5 µg/mL, one replicate
  fitness: 0.0134
B. subtilis 168 [4]; first compound 8 µg/mL, partner 1 µg/mL, one replicate
  fitness: 0.0236
B. subtilis 168 [4]; first compound 8 µg/mL, partner 2 µg/mL, one replicate
  fitness: 0.0259
B. subtilis 168 [4]; first compound 8 µg/mL, partner 4 µg/mL, one replicate
  fitness: 0.0138
B. subtilis 168 [4]; first compound 8 µg/mL, partner 8 µg/mL, one replicate
  fitness: 0.0166
B. subtilis 168 [4]; first compound 8 µg/mL, partner 16 µg/mL, one replicate
  fitness: 0.0096
S. pneumoniae D39V [5]; first compound 0.0037 µg/mL, partner 0.4275 µg/mL, main component drawn
  fitness: 0.993
S. pneumoniae D39V [5]; first compound 0.0037 µg/mL, partner 0.855 µg/mL, main component drawn
  fitness: 0.986
S. pneumoniae D39V [5]; first compound 0.0037 µg/mL, partner 1.71 µg/mL, main component drawn
  fitness: 0.0722
S. pneumoniae D39V [5]; first compound 0.005 µg/mL, partner 6.4 µg/mL, main component drawn
  fitness: 0.0381
S. pneumoniae D39V [5]; first compound 0.0075 µg/mL, partner 0.4275 µg/mL, main component drawn
  fitness: 0.971
S. pneumoniae D39V [5]; first compound 0.0075 µg/mL, partner 0.855 µg/mL, main component drawn
  fitness: 0.974
S. pneumoniae D39V [5]; first compound 0.0075 µg/mL, partner 1.71 µg/mL, main component drawn
  fitness: 0.0723
S. pneumoniae D39V [5]; first compound 0.01 µg/mL, partner 6.4 µg/mL, main component drawn
  fitness: 0.0415
S. pneumoniae D39V [5]; first compound 0.015 µg/mL, partner 0.4275 µg/mL, main component drawn
  fitness: 0.898
S. pneumoniae D39V [5]; first compound 0.015 µg/mL, partner 0.855 µg/mL, main component drawn
  fitness: 0.922
S. pneumoniae D39V [5]; first compound 0.015 µg/mL, partner 1.71 µg/mL, main component drawn
  fitness: 0.089
S. pneumoniae D39V [5]; first compound 0.02 µg/mL, partner 6.4 µg/mL, main component drawn
  fitness: 0.0317

## C/C(=C\C(=O)OCCCCCCCCC(=O)O)C[C@@H]1OC[C@H](C[C@@H]2O[C@H]2[C@@H](C)[C@H](C)O)[C@@H](O)[C@H]1O [Pseudomonic acid] + CC1=C\[C@@H](O)CC(=O)Cc2nc(co2)C(=O)N2CCC=C2C(=O)O[C@H](C(C)C)[C@H](C)/C=C/C(=O)NC\C=C\1 [Virginiamycin M1]
S. aureus DSM 20231
  Bliss interaction score: -0.0077
B. subtilis 168 [1]
  Bliss interaction score: -0.0497
S. pneumoniae D39V [2]
  Bliss interaction score: 0.106
S. aureus Newman [3]
  Bliss interaction score: -0.0218
S. pneumoniae D39V [5]; first compound 0.03 µg/mL, partner 0.15 µg/mL, one replicate
  fitness: ≥ 1
S. pneumoniae D39V [5]; first compound 0.03 µg/mL, partner 0.3 µg/mL, one replicate
  fitness: ≥ 1
S. pneumoniae D39V [5]; first compound 0.03 µg/mL, partner 0.5 µg/mL
  fitness: 0.924
S. pneumoniae D39V [5]; first compound 0.03 µg/mL, partner 1 µg/mL
  fitness: 0.914
S. pneumoniae D39V [5]; first compound 0.03 µg/mL, partner 2 µg/mL
  fitness: 0.952
S. pneumoniae D39V [5]; first compound 0.06 µg/mL, partner 0.15 µg/mL, one replicate
  fitness: ≥ 1
S. pneumoniae D39V [5]; first compound 0.06 µg/mL, partner 0.3 µg/mL, one replicate
  fitness: ≥ 1
S. pneumoniae D39V [5]; first compound 0.06 µg/mL, partner 0.5 µg/mL
  fitness: 0.856
S. pneumoniae D39V [5]; first compound 0.06 µg/mL, partner 1 µg/mL
  fitness: 0.798
S. pneumoniae D39V [5]; first compound 0.06 µg/mL, partner 2 µg/mL
  fitness: 0.844
S. pneumoniae D39V [5]; first compound 0.12 µg/mL, partner 0.15 µg/mL, one replicate
  fitness: 0.866
S. pneumoniae D39V [5]; first compound 0.12 µg/mL, partner 0.3 µg/mL, one replicate
  fitness: 0.865
S. pneumoniae D39V [5]; first compound 0.12 µg/mL, partner 0.5 µg/mL
  fitness: 0.629
S. pneumoniae D39V [5]; first compound 0.12 µg/mL, partner 1 µg/mL
  fitness: 0.63
S. pneumoniae D39V [5]; first compound 0.12 µg/mL, partner 2 µg/mL
  fitness: 0.647
S. aureus Newman [6]; first compound 0.0313 µg/mL, partner 0.0625 µg/mL
  fitness: 0.0328
S. aureus Newman [6]; first compound 0.0313 µg/mL, partner 0.125 µg/mL
  fitness: 0.0308
S. aureus Newman [6]; first compound 0.0313 µg/mL, partner 0.25 µg/mL
  fitness: 0.0405
S. aureus Newman [6]; first compound 0.0625 µg/mL, partner 0.0625 µg/mL
  fitness: 0.0216
S. aureus Newman [6]; first compound 0.0625 µg/mL, partner 0.125 µg/mL
  fitness: 0.0347
S. aureus Newman [6]; first compound 0.0625 µg/mL, partner 0.25 µg/mL
  fitness: 0.0352
S. aureus Newman [6]; first compound 0.125 µg/mL, partner 0.0625 µg/mL
  fitness: 0.0353
S. aureus Newman [6]; first compound 0.125 µg/mL, partner 0.125 µg/mL
  fitness: 0.0594
S. aureus Newman [6]; first compound 0.125 µg/mL, partner 0.25 µg/mL
  fitness: 0.0492
